≈ marks a conversion by molar mass, not a printed value.
Legend:
[1] = biological target: Eukaryotic elongation factor 2 kinase (Homo sapiens) (UniProt O00418); assay: Inhibition of human recombinant full-length EF2K expressed in Escherichia coli at 1 uM using RKKFGESKTKTKEFL as substrate after 30 mins
[2] = biological target: Serine/threonine-protein kinase PAK 4 (Homo sapiens) (UniProt O96013); assay: Inhibition of human recombinant full-length PAK4 expressed in Escherichia coli at 1 uM using RRRLSFAEPG as substrate after 30 mins
Serine/threonine-protein kinase PAK 4 (Homo sapiens), sequence (O96013 whole entry, looked up): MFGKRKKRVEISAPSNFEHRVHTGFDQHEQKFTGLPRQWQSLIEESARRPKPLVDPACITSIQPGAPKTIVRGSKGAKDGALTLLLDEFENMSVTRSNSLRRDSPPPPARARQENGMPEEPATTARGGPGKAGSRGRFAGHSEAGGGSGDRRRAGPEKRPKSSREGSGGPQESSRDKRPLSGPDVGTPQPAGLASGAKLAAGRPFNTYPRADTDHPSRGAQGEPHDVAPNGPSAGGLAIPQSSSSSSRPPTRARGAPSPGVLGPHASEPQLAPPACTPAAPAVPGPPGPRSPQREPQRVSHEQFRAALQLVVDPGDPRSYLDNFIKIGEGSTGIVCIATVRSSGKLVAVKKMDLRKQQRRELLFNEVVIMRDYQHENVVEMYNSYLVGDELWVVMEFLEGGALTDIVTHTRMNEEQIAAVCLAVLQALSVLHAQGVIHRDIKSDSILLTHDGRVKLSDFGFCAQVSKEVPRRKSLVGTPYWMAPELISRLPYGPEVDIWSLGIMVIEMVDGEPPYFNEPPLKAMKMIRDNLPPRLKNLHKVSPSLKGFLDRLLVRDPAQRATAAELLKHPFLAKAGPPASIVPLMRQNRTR

[3] = biological target: Mitogen-activated protein kinase 11 (Homo sapiens) (UniProt Q15759); assay: Inhibition of human recombinant full-length p38beta at 1 uM after 30 mins
Mitogen-activated protein kinase 11 (Homo sapiens), sequence (Q15759 whole entry): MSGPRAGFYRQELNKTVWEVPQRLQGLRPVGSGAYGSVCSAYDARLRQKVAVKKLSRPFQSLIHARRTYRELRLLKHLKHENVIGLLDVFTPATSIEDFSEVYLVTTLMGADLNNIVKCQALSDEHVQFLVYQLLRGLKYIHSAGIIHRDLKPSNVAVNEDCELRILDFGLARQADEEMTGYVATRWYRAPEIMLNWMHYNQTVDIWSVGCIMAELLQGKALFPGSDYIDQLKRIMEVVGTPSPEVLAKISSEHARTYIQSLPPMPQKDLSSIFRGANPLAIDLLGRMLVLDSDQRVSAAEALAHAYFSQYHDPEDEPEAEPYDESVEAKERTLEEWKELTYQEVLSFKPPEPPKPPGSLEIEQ

[4] = biological target: TGF-beta receptor type-1 (Homo sapiens) (UniProt P36897); assay: Inhibition of ALK5 in recombinant human MDA-MB-468 cells assessed as translocation of GFP-smad2; format: cell-based
[5] = Ratio of free drug level in nude mouse at 5 umol/kg administered as single dose after 24 hrs to IC50 for ALK1 in HMEC-1; format: ADME; settings: in vivo
[6] = biological target: Mitogen-activated protein kinase 8 (Homo sapiens) (UniProt P45983); assay: Inhibition of JNK1 (unknown origin) at 1 uM after 30 mins
Mitogen-activated protein kinase 8 (Homo sapiens), sequence (P45983 whole entry): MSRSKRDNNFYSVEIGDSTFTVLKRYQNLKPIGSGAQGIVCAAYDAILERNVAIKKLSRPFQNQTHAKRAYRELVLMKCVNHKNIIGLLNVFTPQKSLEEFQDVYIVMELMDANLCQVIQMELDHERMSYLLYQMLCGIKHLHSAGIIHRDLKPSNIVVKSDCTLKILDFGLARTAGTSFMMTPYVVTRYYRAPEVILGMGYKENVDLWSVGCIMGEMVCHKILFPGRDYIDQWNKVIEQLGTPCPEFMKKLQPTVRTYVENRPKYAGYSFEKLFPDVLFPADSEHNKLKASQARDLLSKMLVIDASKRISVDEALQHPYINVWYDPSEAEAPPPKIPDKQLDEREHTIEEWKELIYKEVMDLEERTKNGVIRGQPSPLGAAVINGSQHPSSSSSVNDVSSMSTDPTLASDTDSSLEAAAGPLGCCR

[7] = biological target: Casein kinase II (Homo sapiens) (UniProt P67870+P68400+P19784); assay: Inhibition of human recombinant full-length CK2 at 1 uM after 30 mins; format: protein-complex assay
[8] = biological target: Myosin light chain kinase, smooth muscle (Homo sapiens) (UniProt Q15746); assay: Inhibition of human recombinant smMLCK (475 to 838 residues) expressed in Escherichia coli at 1 uM using KKRPQRATSNVFA as substrate after 30 mins
[9] = biological target: SRSF protein kinase 1 (Homo sapiens) (UniProt Q96SB4); assay: Inhibition of human recombinant full-length SRPK1 expressed in Escherichia coli at 1 uM using RSRSRSRSRSRSRSR as substrate after 30 mins
[10] = system: Mus musculus; assay: Free Cmax in nude mouse at 50 mg/kg, po administered as single dose after 24 hrs; format: ADME, organism-based; settings: in vivo
[11] = Solubility of the compound; format: physicochemical
[12] = AUC in Han Wistar rat at 5 umol/kg; format: ADME, organism-based; settings: in vivo
[13] = Clearance in Han Wistar rat; format: ADME, organism-based; settings: in vivo
[14] = biological target: Serine/threonine-protein kinase Chk2 (Homo sapiens) (UniProt O96017); assay: Inhibition of human recombinant CHK2 (5 to 543 residues) expressed in Escherichia coli at 1 uM after 30 mins
[15] = biological target: Aurora kinase B (Homo sapiens) (UniProt Q96GD4); assay: Inhibition of human recombinant full-length AurKB expressed in insect Sf21 cells at 1 uM using LRRLSLGLRRLSLGLRRLSLGLRRLSLG as substrate after 30 mins
[16] = biological target: Ephrin type-A receptor 2 (Homo sapiens) (UniProt P29317); assay: Inhibition of human recombinant EPHA2 receptor (591 to 976 residues) expressed in insect Sf21 cells at 1 uM using poly(Glu4-Tyr1) as substrate after 30 mins
[17] = system: Mus musculus; assay: Free drug concentration in nude mouse at 50 mg/kg, po administered as single dose after 24 hrs; format: ADME, organism-based; settings: in vivo
[18] = biological target: Insulin-like growth factor 1 receptor (Homo sapiens) (UniProt P08069); assay: Inhibition of IGF1R (unknown origin) at 1 uM
[19] = biological target: Serine/threonine-protein kinase 26 (Homo sapiens) (UniProt Q9P289); assay: Inhibition of MST4 (unknown origin) at 1 uM
[20] = biological target: Calcium/calmodulin-dependent protein kinase kinase 2 (Homo sapiens) (UniProt Q96RR4); assay: Inhibition of human recombinant full-length CAMKKbeta expressed in Escherichia coli at 1 uM using AKPKGNKDYHLQTCCGSLAYRRR as substrate
Calcium/calmodulin-dependent protein kinase kinase 2 (Homo sapiens), sequence (Q96RR4 2-588 limits assumed): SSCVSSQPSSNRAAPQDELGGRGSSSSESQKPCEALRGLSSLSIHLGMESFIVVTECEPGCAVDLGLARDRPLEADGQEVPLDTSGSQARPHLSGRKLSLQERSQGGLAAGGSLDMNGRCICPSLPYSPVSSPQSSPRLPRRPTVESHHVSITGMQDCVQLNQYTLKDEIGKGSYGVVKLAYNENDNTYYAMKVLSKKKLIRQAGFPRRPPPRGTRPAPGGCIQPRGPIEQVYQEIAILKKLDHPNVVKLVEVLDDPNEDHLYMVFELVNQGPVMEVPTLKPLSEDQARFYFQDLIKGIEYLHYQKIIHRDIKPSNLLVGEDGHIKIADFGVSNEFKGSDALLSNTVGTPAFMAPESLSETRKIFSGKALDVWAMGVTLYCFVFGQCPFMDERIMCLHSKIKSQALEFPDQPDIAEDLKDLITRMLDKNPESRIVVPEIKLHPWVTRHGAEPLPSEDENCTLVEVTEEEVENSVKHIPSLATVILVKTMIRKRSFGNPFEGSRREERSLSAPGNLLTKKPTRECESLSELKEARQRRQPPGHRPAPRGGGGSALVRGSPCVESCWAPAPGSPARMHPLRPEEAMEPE

[21] = biological target: Activin receptor type-1-like (Homo sapiens, UniProt P37023); assay: Inhibition of ALK1 (unknown origin)
[22] = biological target: Maternal embryonic leucine zipper kinase (Homo sapiens) (UniProt Q14680); assay: Inhibition of human recombinant full-length MELK expressed in Escherichia coli at 1 uM using KKLNRTLSFAEPG as substrate after 30 mins
Maternal embryonic leucine zipper kinase (Homo sapiens), sequence (Q14680 whole entry, looked up): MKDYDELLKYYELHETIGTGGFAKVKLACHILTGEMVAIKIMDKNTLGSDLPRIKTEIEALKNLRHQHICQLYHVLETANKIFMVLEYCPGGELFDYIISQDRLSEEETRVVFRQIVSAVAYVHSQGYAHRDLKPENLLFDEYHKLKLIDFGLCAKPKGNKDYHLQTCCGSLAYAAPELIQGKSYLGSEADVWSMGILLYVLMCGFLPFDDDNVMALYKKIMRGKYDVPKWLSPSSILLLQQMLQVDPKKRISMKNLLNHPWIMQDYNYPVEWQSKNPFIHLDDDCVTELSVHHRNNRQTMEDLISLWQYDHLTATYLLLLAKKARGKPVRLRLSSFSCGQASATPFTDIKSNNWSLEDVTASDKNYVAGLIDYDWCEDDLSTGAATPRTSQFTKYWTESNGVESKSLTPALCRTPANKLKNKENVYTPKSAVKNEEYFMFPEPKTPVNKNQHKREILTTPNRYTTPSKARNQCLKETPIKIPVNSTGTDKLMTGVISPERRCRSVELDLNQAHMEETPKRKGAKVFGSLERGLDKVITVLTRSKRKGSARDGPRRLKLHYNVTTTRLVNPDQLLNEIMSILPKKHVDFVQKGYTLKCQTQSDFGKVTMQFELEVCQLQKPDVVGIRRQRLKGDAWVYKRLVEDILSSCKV

[23] = Lipophilicity, log D of the compound at pH 7.4; format: physicochemical; settings: buffer
[24] = biological target: Dual specificity tyrosine-phosphorylation-regulated kinase 1A (Homo sapiens) (UniProt Q13627); assay: Inhibition of human recombinant DYRK1A (1 to 499 residues) expressed in Escherichia coli at 1 uM using KKISGRLSPIMTEQ as substrate after 30 mins
[25] = biological target: Bone morphogenetic protein receptor type-1A (Homo sapiens, UniProt P36894); assay: Inhibition of human recombinant N-terminal GST-tagged ALK3 (187 to 432 residues) expressed in insect cells by FRET assay
Bone morphogenetic protein receptor type-1A, sequence (P36894 whole entry, the tested form may be a part): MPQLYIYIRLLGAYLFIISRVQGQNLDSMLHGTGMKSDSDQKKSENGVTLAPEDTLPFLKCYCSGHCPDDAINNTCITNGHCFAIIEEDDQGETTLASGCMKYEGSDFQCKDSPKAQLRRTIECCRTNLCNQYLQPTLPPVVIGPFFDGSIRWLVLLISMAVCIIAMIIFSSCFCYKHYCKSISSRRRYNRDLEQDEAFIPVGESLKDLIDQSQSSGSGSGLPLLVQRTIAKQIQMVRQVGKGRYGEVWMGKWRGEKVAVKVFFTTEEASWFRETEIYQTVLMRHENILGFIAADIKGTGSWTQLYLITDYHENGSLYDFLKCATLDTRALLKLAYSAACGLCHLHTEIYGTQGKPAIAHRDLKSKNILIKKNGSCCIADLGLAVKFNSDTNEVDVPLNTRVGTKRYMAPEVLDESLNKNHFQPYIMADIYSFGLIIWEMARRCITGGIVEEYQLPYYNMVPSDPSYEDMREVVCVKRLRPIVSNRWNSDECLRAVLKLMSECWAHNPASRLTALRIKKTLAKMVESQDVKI

[26] = biological target: Serine/threonine-protein kinase PLK1 (Homo sapiens) (UniProt P53350); assay: Inhibition of human recombinant full-length PLK1 expressed in insect Sf21 cells at 1 uM using ISDELMDATFADQEAKKK as substrate after 30 mins
[27] = biological target: Tyrosine-protein kinase Yes (Homo sapiens) (UniProt P07947); assay: Inhibition of human recombinant full-length YES1 expressed in insect Sf21 cells at 1 uM using poly(Glu4-Tyr1) as substrate after 30 mins
[28] = biological target: TGF-beta receptor type-1 (Homo sapiens, UniProt P36897); assay: Inhibition of full length human N-terminal GST-tagged ALK5 expressed in baculovirus by FRET assay
[29] = Fraction unbound in mouse plasma; format: ADME, cell-free
[30] = biological target: Lymphokine-activated killer T-cell-originated protein kinase (Homo sapiens) (UniProt Q96KB5); assay: Inhibition of human recombinant full-length PBK at 1 uM after 30 mins
[31] = biological target: Glycogen synthase kinase-3 beta (Homo sapiens) (UniProt P49841); assay: Inhibition of human recombinant full-length GSK3beta at 1 uM after 30 mins
Glycogen synthase kinase-3 beta (Homo sapiens), sequence (P49841 whole entry, looked up): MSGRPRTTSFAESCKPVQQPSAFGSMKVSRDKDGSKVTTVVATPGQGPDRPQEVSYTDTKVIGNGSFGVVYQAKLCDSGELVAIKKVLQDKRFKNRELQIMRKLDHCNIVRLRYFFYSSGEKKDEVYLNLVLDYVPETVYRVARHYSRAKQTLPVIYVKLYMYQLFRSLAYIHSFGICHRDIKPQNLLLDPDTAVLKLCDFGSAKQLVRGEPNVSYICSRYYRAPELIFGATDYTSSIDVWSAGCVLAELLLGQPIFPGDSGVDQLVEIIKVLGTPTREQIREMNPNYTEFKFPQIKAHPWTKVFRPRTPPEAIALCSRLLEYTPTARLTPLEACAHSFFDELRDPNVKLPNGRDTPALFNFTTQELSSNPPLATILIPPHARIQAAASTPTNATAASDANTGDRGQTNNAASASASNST

[32] = biological target: Ribosomal protein S6 kinase beta-1 (Homo sapiens) (UniProt P23443); assay: Inhibition of P70S6K (unknown origin) at 1 uM
[33] = biological target: Calcium/calmodulin-dependent protein kinase type 1D (Homo sapiens) (UniProt Q8IU85); assay: Inhibition of CAMK1d (unknown origin) at 1 uM
[34] = biological target: Protein kinase C zeta type (Homo sapiens) (UniProt Q05513); assay: Inhibition of PKCz (unknown origin) at 1 uM
Protein kinase C zeta type (Homo sapiens), sequence (Q05513 whole entry): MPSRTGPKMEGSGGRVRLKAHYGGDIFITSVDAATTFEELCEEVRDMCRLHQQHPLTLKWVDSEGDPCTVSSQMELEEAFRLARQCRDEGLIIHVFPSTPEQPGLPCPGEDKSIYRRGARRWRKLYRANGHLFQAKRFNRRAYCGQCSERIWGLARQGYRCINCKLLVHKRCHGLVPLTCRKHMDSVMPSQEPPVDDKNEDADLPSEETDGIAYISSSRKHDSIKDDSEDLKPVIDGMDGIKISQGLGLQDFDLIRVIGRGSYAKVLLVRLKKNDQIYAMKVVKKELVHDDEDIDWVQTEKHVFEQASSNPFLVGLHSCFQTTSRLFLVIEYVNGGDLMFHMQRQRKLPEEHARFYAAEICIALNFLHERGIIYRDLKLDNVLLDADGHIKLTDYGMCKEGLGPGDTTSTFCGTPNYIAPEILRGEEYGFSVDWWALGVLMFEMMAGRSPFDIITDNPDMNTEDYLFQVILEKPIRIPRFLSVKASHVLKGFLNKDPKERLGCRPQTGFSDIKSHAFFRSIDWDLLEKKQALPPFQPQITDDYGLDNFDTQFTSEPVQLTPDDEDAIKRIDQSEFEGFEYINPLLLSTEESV

[35] = biological target: Tyrosine-protein kinase CSK (Homo sapiens) (UniProt P41240); assay: Inhibition of human recombinant full-length CSK at 1 uM after 30 mins
[36] = biological target: Serine/threonine-protein kinase Nek2 (Homo sapiens) (UniProt P51955); assay: Inhibition of human recombinant full-length NEK2a expressed in insect Sf21 cells at 1 uM using RFRRSRRMI as substrate after 30 mins

Eukaryotic elongation factor 2 kinase (Homo sapiens), sequence (O00418 whole entry): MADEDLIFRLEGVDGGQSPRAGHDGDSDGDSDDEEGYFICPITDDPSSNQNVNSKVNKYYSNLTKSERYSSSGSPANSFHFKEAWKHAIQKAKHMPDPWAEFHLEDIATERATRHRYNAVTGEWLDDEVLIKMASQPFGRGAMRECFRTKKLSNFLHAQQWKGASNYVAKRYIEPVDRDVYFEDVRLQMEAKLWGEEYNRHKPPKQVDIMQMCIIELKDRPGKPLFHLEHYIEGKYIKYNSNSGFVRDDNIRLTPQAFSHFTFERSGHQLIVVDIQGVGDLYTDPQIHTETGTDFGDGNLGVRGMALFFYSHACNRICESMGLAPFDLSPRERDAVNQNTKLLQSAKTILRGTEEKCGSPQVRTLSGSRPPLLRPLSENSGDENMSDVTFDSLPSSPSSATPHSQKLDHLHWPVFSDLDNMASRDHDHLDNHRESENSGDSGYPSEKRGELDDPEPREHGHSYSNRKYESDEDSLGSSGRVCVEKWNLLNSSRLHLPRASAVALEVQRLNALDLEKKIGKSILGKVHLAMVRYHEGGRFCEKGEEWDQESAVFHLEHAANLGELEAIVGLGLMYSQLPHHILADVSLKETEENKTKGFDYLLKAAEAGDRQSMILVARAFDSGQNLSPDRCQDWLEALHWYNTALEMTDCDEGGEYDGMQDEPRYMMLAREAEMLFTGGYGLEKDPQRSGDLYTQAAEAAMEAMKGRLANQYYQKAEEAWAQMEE

## O=C(Nc1cc(Nc2c(Cl)cnc3c2OCO3)ccn1)C1CC1
[1]
  inhibition: < 80%
[2]
  inhibition: < 80%
[3]
  inhibition: < 80%
[4]
  INH: 0.12 µM
[5]
  Ratio: > 10
[6]
  inhibition: < 80%
[7]
  inhibition: < 80%
[8]
  inhibition: < 80%
[9]
  inhibition: < 80%
[10]
  fCmax: 31.7 µM
[11]
  solubility: 63 µM (≈ 21 µg/mL)
[12]
  AUC: 3.8 µM·h
[13]
  clearance: 8.4 mL/min/kg
[14]
  inhibition: < 80%
[15]
  inhibition: < 80%
[16]
  inhibition: > 50%
[17]
  Drug uptake(free): 0.37 µM
[18]
  inhibition: < 80%
[19]
  inhibition: < 80%
[20]
  inhibition: < 80%
[21]
  IC50: 4 nM
[22]
  inhibition: < 80%
[23]
  logD: 2.7
[24]
  inhibition: < 80%
[25]
  IC50: 2.4 nM
[26]
  inhibition: < 80%
[27]
  inhibition: > 50%
[28]
  IC50: 1.9 nM
[29]
  fraction unbound: 0.27
[30]
  inhibition: < 80%
[31]
  inhibition: < 80%
[32]
  inhibition: < 80%
[33]
  inhibition: < 80%
[34]
  inhibition: < 80%
[35]
  inhibition: < 80%
[36]
  inhibition: < 80%

Reference: ChEMBL document CHEMBL3817795, “Identification and optimisation of a series of N-(4-anilino-2-pyridyl)acetamide activin receptor-like kinase 1 (ALK1) inhibitors” (Medchemcomm, 2016)
